In patent US10913773B2, “Bicyclic peptidyl inhibitor of tumor necrosis factor-alpha” (Ohio State Innovation Foundation, priority 2016, dated 2021):
Starred links: 1 amine or outer side, 2 acyl side, 3 side chain; linkers in the order of their positions; H or OH if unused. Positions of bridges follow the written chain, without caps; N, C: chain ends. Non-standard residues stand in square brackets, D forms with d. Residues, ends and D or L forms follow the SMILES beside them. Groups on a side chain read outwards from the residue. *: point of attachment. Lys(5-FITC)NH2 = NC(=O)[C@H](CCCCNC(=S)Nc1ccc2c(c1)C(=O)OC21c2ccc(O)cc2Oc2cc(O)ccc21)N*; FITC = O=C1OC2(c3ccc(O)cc3Oc3cc(O)ccc32)c2ccc(NC(=S)*)cc21; Trimesoyl = O=C(c1cc(C(=O)[*:2])cc(C(=O)[*:3])c1)[*:1]; NH(1S,2S-2-CONH2-cPent) = NC(=O)[C@H]1CCC[C@@H]1N*; β3hV = CC(C)[C@H](N)CC(=O)O; 3Abz = Nc1cccc(C(=O)O)c1; Nle = CCCC[C@H](N)C(=O)O; Dap = NC[C@H](N)C(=O)O; AEEA = NCCOCCOCC(=O)O; βAla = NCCC(=O)O; NHiPr = CC(C)N*

Target: T1, TNFα-TNFR1 interaction (Homo sapiens, UniProt P01375)
T1 construct: made in house; host or cells: Escherichia coli (TNFα)
Assay: ELISA inhibition of TNFα-TNFR1 interaction (immobilized biotinylated TNFα, TNFR1-HRP)
Assay type: binding
Details: Table 5; peptides without Lys(FITC) label
Method: Inhibition of TNFα-TNRF1 interaction by ELISA was carried out as previously described (Lian, W.; et al., supra).
Because of its high-throughput capability, FA analysis had been used to generate all of the SAR data described above. […] To confirm the SAR data obtained by FA analysis, some of the compounds in Table 5 (as well as new compounds) were resynthesized without the Lys(FITC) label and employed a more sensitive ELISA-based assay to determine the IC50 values for inhibition of the TNFα-TNFR1 interaction. Briefly, biotinylated TNFα was immobilized onto a NeutrAvidin-coated surface. TNFR1 conjugated with horseradish peroxidase (HRP) (0.5 nM) was added along with different concentrations of a peptide inhibitor. After washing, the amount of bound TNFR1-HRP was quantitated by ELISA. […] In agreement with the FA results, either extension at the C-terminus of β-Ala with another amino acid (C1-67 to C1-70) or side-chain modification of β-Ala (C1-71 to C1-73) decreased TNFα binding.

IC50 [nM]	SMILES
1700 ± 700	CCCC[C@@H]1NC(=O)c2cc3cc(c2)C(=O)NC[C@@H](C(=O)Nc2cccc(C(N)=O)c2)NC(=O)[C@H](Cc2c[nH]cn2)NC(=O)[C@@H](CCCCN)NC(=O)CNC(=O)[C@@H](Cc2c[nH]cn2)NC(=O)[C@H](Cc2c[nH]c4ccccc24)NC(=O)[C@H](CCCCNC3=O)NC(=O)[C@@H](CO)NC(=O)[C@H](Cc2ccc(O)cc2)NC1=O [Compound C1-73] ([Nle]Y[dS]KW[dH]G[dK]H[Dap][3Abz]-NH2; linker N-4-10 via Trimesoyl)
> 10000	CCCC[C@@H]1NC(=O)c2cc3cc(c2)C(=O)NC[C@@H](C(=O)NCCC(=O)N[C@H](Cc2ccccc2)C(N)=O)NC(=O)[C@H](Cc2c[nH]cn2)NC(=O)[C@@H](CCCCN)NC(=O)CNC(=O)[C@@H](Cc2c[nH]cn2)NC(=O)[C@H](Cc2c[nH]c4ccccc24)NC(=O)[C@H](CCCCNC3=O)NC(=O)[C@@H](CO)NC(=O)[C@H](Cc2ccc(O)cc2)NC1=O [Compound C1-70] ([Nle]Y[dS]KW[dH]G[dK]H[Dap][βAla][dF]-NH2; linker N-4-10 via Trimesoyl)
2400 ± 1300	CCCC[C@@H]1NC(=O)c2cc3cc(c2)C(=O)NC[C@@H](C(=O)N[C@H](CC(N)=O)C(C)C)NC(=O)[C@H](Cc2c[nH]cn2)NC(=O)[C@@H](CCCCN)NC(=O)CNC(=O)[C@@H](Cc2c[nH]cn2)NC(=O)[C@H](Cc2c[nH]c4ccccc24)NC(=O)[C@H](CCCCNC3=O)NC(=O)[C@@H](CO)NC(=O)[C@H](Cc2ccc(O)cc2)NC1=O [Compound C1-71] ([Nle]Y[dS]KW[dH]G[dK]H[Dap][β3hV]-NH2; linker N-4-10 via Trimesoyl)
1500 ± 900	CCCC[C@@H]1NC(=O)c2cc3cc(c2)C(=O)NC[C@@H](C(=O)NCCC(=O)NCCC(N)=O)NC(=O)[C@H](Cc2c[nH]cn2)NC(=O)[C@@H](CCCCN)NC(=O)CNC(=O)[C@@H](Cc2c[nH]cn2)NC(=O)[C@H](Cc2c[nH]c4ccccc24)NC(=O)[C@H](CCCCNC3=O)NC(=O)[C@@H](CO)NC(=O)[C@H](Cc2ccc(O)cc2)NC1=O [Compound C1-67] ([Nle]Y[dS]KW[dH]G[dK]H[Dap][βAla][βAla]-NH2; linker N-4-10 via Trimesoyl)
110 ± 30	CCCC[C@@H]1NC(=O)c2cc3cc(c2)C(=O)NC[C@@H](C(=O)N[C@H]2CCC[C@@H]2C(N)=O)NC(=O)[C@H](Cc2c[nH]cn2)NC(=O)[C@@H](CCCCN)NC(=O)CNC(=O)[C@@H](Cc2c[nH]cn2)NC(=O)[C@H](Cc2c[nH]c4ccccc24)NC(=O)[C@H](CCCCNC3=O)NC(=O)[C@@H](CO)NC(=O)[C@H](Cc2ccc(O)cc2)NC1=O [Compound C1-72] ([Nle]Y[dS]KW[dH]G[dK]H[Dap]-{NH(1S,2S-2-CONH2-cPent)}; linker N-4-10 via Trimesoyl)
1300 ± 1100	CCCC[C@@H]1NC(=O)c2cc3cc(c2)C(=O)NC[C@@H](C(=O)NCCC(=O)N[C@@H](Cc2ccccc2)C(N)=O)NC(=O)[C@H](Cc2c[nH]cn2)NC(=O)[C@@H](CCCCN)NC(=O)CNC(=O)[C@@H](Cc2c[nH]cn2)NC(=O)[C@H](Cc2c[nH]c4ccccc24)NC(=O)[C@H](CCCCNC3=O)NC(=O)[C@@H](CO)NC(=O)[C@H](Cc2ccc(O)cc2)NC1=O [Compound C1-69] ([Nle]Y[dS]KW[dH]G[dK]H[Dap][βAla]F-NH2; linker N-4-10 via Trimesoyl)

Same assay, conditions: inhibition of TNFα-TNFR1 interaction, unlabeled peptides

IC50 [nM]	SMILES
1350 ± 490	CC(=O)[C@@H](Cc1ccc(O)cc1)NC(=O)[C@@H](CC(=O)O)NC(=O)C(N)CC(=O)O (stereo partly shown) [Compound C1-74-5]
85	CCCC[C@@H]1NC(=O)c2cc3cc(c2)C(=O)NC[C@@H](C(=O)NCCC(N)=O)NC(=O)[C@H](Cc2c[nH]cn2)NC(=O)[C@@H](CCCCN)NC(=O)CNC(=O)[C@@H](Cc2c[nH]cn2)NC(=O)[C@H](Cc2c[nH]c4ccccc24)NC(=O)[C@H](CCCCNC3=O)NC(=O)[C@@H](CO)NC(=O)[C@H](Cc2ccc(O)cc2)NC1=O [Compound C1-66] ([Nle]Y[dS]KW[dH]G[dK]H[Dap][βAla]-NH2; linker N-4-10 via Trimesoyl)
30	CC(=O)C[C@H](CCc1ccccc1)NC(=O)[C@@H](CC(N)=O)NC(=O)C(N)Cc1ccccc1F (stereo partly shown) [Compound C1-74-4]

Same assay, conditions: relative to C1-74

Improvement of IC50 over C1-74 (fold)	SMILES
~2	CC(=O)C[C@H](CCc1ccccc1)NC(=O)[C@@H](CC(N)=O)NC(=O)C(N)Cc1ccccc1F (stereo partly shown) [Compound C1-74-4]

Target: T2, TNFα (Homo sapiens, UniProt P01375)
T2 construct: ybbR tag (13 aa) (N); made in house; host or cells: Escherichia coli
Assay: Fluorescence anisotropy (FA) binding of fluorescently labeled bicyclic peptides to TNFα
Details: His-9 replaced with Phe, relative to parent
Method: FITC-labeled bicyclic peptide (50 or 100 nM) were incubated with varying concentrations of TNFα (0-5 μM) in 30 mM HEPES, pH 7.4, 150 mM NaCl, and 2 mM magnesium acetate for 2 h. The FA values were measured on a Molecular Devices Spectramax M5 spectrofluorimeter, with excitation and emission wavelengths at 485 and 525 nm, respectively. Equilibrium dissociation constants (KD) were determined by plotting the FA values as a function of TNFα concentration and fitting the data to the following equation
[formula] where Y is the measured anisotropy at a given TNFα concentration x; L is the bicyclic peptide concentration; Qb/Qf is the correction fact for dye-protein interaction; Amax is the maximum anisotropy when all the peptides are bound to TNFα, while Amin is the minimum anisotropy. Competition experiments were performed by incubating 100 nM Asn-Asn-Asn-Lys(FITC)-labeled anticachexin C1 (Table 1), 2 μM of TNFα, and varying concentrations of unlabeled competitor peptide (0-20 μM) in the above buffer for 2 h. The FA values were plotted against the competitor peptide concentration to determine the IC50 values.
To identify residues significant for TNFα binding, each residue of anticachexin C1 (other than D-alanine at position-3, L-lysine at position-4, and L-2,3-diaminopropionic acid (Dap) at position-10) was individually replaced with an alanine (or D-alanine). To facilitate binding analysis by fluorescence anisotropy (FA), a tetrapeptide NNNK (SEQ ID NO: 1) was added to the C-terminus of each bicyclic peptide and the lysine side chain was labeled with fluorescein isothiocyanate (FITC) during solid-phase synthesis (Scheme 1). The three asparagine residues were added to improve the aqueous solubility of the bicyclic peptides. The bicyclic peptide was prepared by first synthesizing the full-length linear sequence on Rink amide resin using standard Fmoc/HBTU chemistry. The side chains of the two internal cyclization residues, L-lysine and Dap, were protected with monomethoxytrityl (Mmt) groups, whereas the C-terminal lysine was protected with an allyloxycarbonyl (Alloc) group. After removal of the N-terminal Fmoc group, a trimesic acid was coupled to the N-terminal amine using HBTU as the coupling agent. Next, the Mmt groups were selectively removed from the Lys and Dap side chains by 2% TFA and the peptide was cyclized by treatment with (benzotriazol-1-yloxy)tripyrrolidinophosphonium hexafluorophosphate (PyBOP). The Alloc group on the C-terminal lysine side chain was removed by treatment with Pd(PPh3)4 and the bicyclic peptide was selectively labeled at the C-terminal lysine by treating the resin with FITC. […] On the other hand, phenylglycine (Phg)-1 and glycine-7 play more minor roles in binding.

Reduction of TNFα binding affinity (fold)	SMILES
~30	CCCC[C@@H]1NC(=O)c2cc3cc(c2)C(=O)NC[C@@H](C(=O)N[C@@H](CCCCNC(=S)Nc2ccc4c(c2)C(=O)OC42c4ccc(O)cc4Oc4cc(O)ccc42)C(N)=O)NC(=O)[C@H](Cc2ccccc2)NC(=O)[C@@H](CCCCN)NC(=O)CNC(=O)[C@@H](Cc2c[nH]cn2)NC(=O)[C@H](Cc2c[nH]c4ccccc24)NC(=O)[C@H](CCCCNC3=O)NC(=O)[C@@H](CO)NC(=O)[C@H](Cc2ccc(O)cc2)NC1=O [Compound C1-50] ([Nle]Y[dS]KW[dH]G[dK]F[Dap]K(FITC)-NH2; linker N-4-10 via Trimesoyl)

Same assay, conditions: Table 5; residue 11 variants with Lys(FITC)

Kd [nM]	SMILES
420 ± 210	CCCC[C@@H]1NC(=O)c2cc3cc(c2)C(=O)NC[C@@H](C(=O)N[C@@H](CC(=O)NCCOCCOCC(=O)N[C@@H](CCCCNC(=S)Nc2ccc4c(c2)C(=O)OC42c4ccc(O)cc4Oc4cc(O)ccc42)C(N)=O)C(=O)NC(C)C)NC(=O)[C@H](Cc2c[nH]cn2)NC(=O)[C@@H](CCCCN)NC(=O)CNC(=O)[C@@H](Cc2c[nH]cn2)NC(=O)[C@H](Cc2c[nH]c4ccccc24)NC(=O)[C@H](CCCCNC3=O)NC(=O)[C@@H](CO)NC(=O)[C@H](Cc2ccc(O)cc2)NC1=O [Compound C1-61] ([Nle]Y[dS]KW[dH]G[dK]H[Dap]D([AEEA-Lys(5-FITC)NH2])-NHiPr; linker N-4-10 via Trimesoyl)
1900 ± 900	CCCC[C@@H]1NC(=O)c2cc3cc(c2)C(=O)NC[C@@H](C(=O)Nc2cn(C)cc2C(=O)NCCOCCOCC(=O)N[C@@H](CCCCNC(=S)Nc2ccc4c(c2)C(=O)OC42c4ccc(O)cc4Oc4cc(O)ccc42)C(N)=O)NC(=O)[C@H](Cc2c[nH]cn2)NC(=O)[C@@H](CCCCN)NC(=O)CNC(=O)[C@@H](Cc2c[nH]cn2)NC(=O)[C@H](Cc2c[nH]c4ccccc24)NC(=O)[C@H](CCCCNC3=O)NC(=O)[C@@H](CO)NC(=O)[C@H](Cc2ccc(O)cc2)NC1=O [Compound C1-65]
160 ± 150	CCCC[C@@H]1NC(=O)c2cc3cc(c2)C(=O)NC[C@@H](C(=O)N[C@H]2CCC[C@@H]2C(=O)NCCOCCOCC(=O)N[C@@H](CCCCNC(=S)Nc2ccc4c(c2)C(=O)OC42c4ccc(O)cc4Oc4cc(O)ccc42)C(N)=O)NC(=O)[C@H](Cc2c[nH]cn2)NC(=O)[C@@H](CCCCN)NC(=O)CNC(=O)[C@@H](Cc2c[nH]cn2)NC(=O)[C@H](Cc2c[nH]c4ccccc24)NC(=O)[C@H](CCCCNC3=O)NC(=O)[C@@H](CO)NC(=O)[C@H](Cc2ccc(O)cc2)NC1=O [Compound C1-63]
380 ± 140	CCCC[C@@H]1NC(=O)c2cc3cc(c2)C(=O)NC[C@@H](C(=O)N[C@@H](CC(=O)NCCOCCOCC(=O)N[C@@H](CCCCNC(=S)Nc2ccc4c(c2)C(=O)OC42c4ccc(O)cc4Oc4cc(O)ccc42)C(N)=O)C(=O)NCC)NC(=O)[C@H](Cc2c[nH]cn2)NC(=O)[C@@H](CCCCN)NC(=O)CNC(=O)[C@@H](Cc2c[nH]cn2)NC(=O)[C@H](Cc2c[nH]c4ccccc24)NC(=O)[C@H](CCCCNC3=O)NC(=O)[C@@H](CO)NC(=O)[C@H](Cc2ccc(O)cc2)NC1=O [Compound C1-60] ([Nle]Y[dS]KW[dH]G[dK]H[Dap]D([AEEA-Lys(5-FITC)NH2])-NHEt; linker N-4-10 via Trimesoyl)
340 ± 230	CCCC[C@@H]1NC(=O)c2cc3cc(c2)C(=O)NC[C@@H](C(=O)N2CCC[C@@H](C(=O)NCCOCCOCC(=O)N[C@@H](CCCCNC(=S)Nc4ccc5c(c4)C(=O)OC54c5ccc(O)cc5Oc5cc(O)ccc54)C(N)=O)C2)NC(=O)[C@H](Cc2c[nH]cn2)NC(=O)[C@@H](CCCCN)NC(=O)CNC(=O)[C@@H](Cc2c[nH]cn2)NC(=O)[C@H](Cc2c[nH]c4ccccc24)NC(=O)[C@H](CCCCNC3=O)NC(=O)[C@@H](CO)NC(=O)[C@H](Cc2ccc(O)cc2)NC1=O [Compound C1-64]
